Data published in US5837706A, “Drug for neuroprotection” (Daiichi Pharmaceutical Co., Ltd., priority 1993, dated 1998).
Entries after “also recorded” stand apart in the source; their conditions may differ. Where two headings read alike, the source gives them in different places.

Experiments:
[1] = target: T1, calmodulin-depending phosphodiesterase (CaM-PDE) / calmodulin (Bos taurus, UniProt P62157); assay: Calmodulin inhibition effect: inhibition of calmodulin-depending phosphodiesterase (PDE); assay type: biochemical, bovine
T1 construct: calmodulin (CaM, from bovine brain); from tissue; host or cells: bovine brain
Experimental: The calmodulin inhibition effect of a compound was evaluated by using its effect of inhibiting calmodulin-depending phosphodiesterase (PDE) as an index. […] After ceasing the reaction by heating in a boiling water bath for 1 minute, snake venom (1 mg/ml) was added thereto and the resulting mixture was reacted at 30° C. for 10 minutes to thereby convert 5'-GMP formed by PDE into guanosine. Next, the unreacted cGMP was adsorbed by an ion exchange resin (AGI-X8). Subsequently, the mixture was centrifuged and the radioactivity of the supernatant was measured with a liquid scintillation counter.

hippocampal calmodulin [2] = assay: Effect on intracellular localization of hippocampal calmodulin in hippocampal homogenate (radioimmunoassay); assay type: biochemical, gerbil; conditions: for effect on the behavior of calmodulin in the presence of EGTA / Calmodulin Content, Soluble Fraction / Calmodulin Content, Membrane Fraction: 1 mM EGTA; for Calmodulin Content, Soluble Fraction / Calmodulin Content, Membrane Fraction: hippocampal homogenate, 37° C., 30 minutes, 1 mM CaCl2, or 1 mM CaCl2 + 10 μM compound A; for Calmodulin Content, Soluble Fraction: control 4.5 ± 0.13; for Calmodulin Content, Membrane Fraction: control 8.8 ± 0.25
Experimental: The hippocampus of a gerbil was homogenized with 20 mM tris buffer (pH 7.5) containing 0.1 mM leupeptin, 0.1 mM PMSF and 0.01 mg/ml of aprotinin. […] The precipitate was solubilized with 0.1% Lubrol PX. Then the calmodulin contents in the soluble fraction and the membrane fraction were determined by radioimmunoassay.

hippocampal calmodulin [3] = assay: Effect on intracellular localization of hippocampal calmodulin in cerebral ischemic gerbil (radioimmunoassay); assay type: in vivo; conditions: for increase in the calmodulin content in the membrane fraction / translocation of calmodulin after cerebral ischemia: cerebral ischemic model of gerbil, 100 mg/kg orally, 24 hours after ischemia
Experimental: Both common carotid arteries of a gerbil were ligated for 10 minutes. One hour and 24 hours after allowing the blood stream to flow again, the calmodulin content in the hippocampus was determined by radioimmunoassay. The compound A (100 mg/kg) was suspended in 0.5% methylcellulose and orally administered to the animal 1 hour before cerebral ischemia.

fodrin [4] = assay: Change in fodrin in cerebral ischemic model (western blotting); assay type: in vivo; conditions: cerebral ischemic model of gerbil; 100 mg/kg 1 hour before ischemia, evaluated 48 hours thereafter
Experimental: Both common carotid arteries of a gerbil were ligated for 10 minutes to thereby prepare a cerebral ischemic model. Four, 24 and 48 hours after allowing the blood stream to flow again, the hippocampus was taken out and homogenized with 20 mM tris buffer (pH 7.5) containing 0.1 mM leupeptin, 0.1 mM PMSF and […]. After centrifuging at 10,000×g for 30 minutes, proteins in the supernatant were separated by SDS-PAGE. Then fodrin and breakdown products thereof were identified by the same method as the one described in Pharmacological Example 3. The compound B (100 mg/kg) was administered 1 hour before cerebral ischemia and evaluated 48 hours thereafter. Fodrin breakdown products were little detected from the normal gerbil. In the case of the cerebral ischemic model, on the other hand, breakdown products appeared 4 hours after allowing the blood stream to flow again and similar bands were observed after 48 hours.

[5] = tested on: hippocampal CA1 neuronal cells; assay: Change in hippocampal neuronal cells in cerebral ischemic model; assay type: in vivo, gerbil; conditions: for Hippocampal Neuronal Cell Density: 100 mg/kg orally 1 hour after 5 min ischemia, CA1, 7 days, n = 9-10, normal 194 ± 6.1, ischemia 9 ± 1.3; for protective effect on neuronal cells / suppression of neuronal cell death: cerebral ischemia, gerbil, 100 mg/kg orally 1 hour after ischemia
Experimental: When transient cerebral ischemia was loaded to a gerbil, necrosis of hippocampal cells was observed from several days thereafter. This change is called delayed neuronal cell death. Cerebral ischemia was loaded to a gerbil for 5 minutes. Seven days thereafter, the animal was sacrificed and the neuronal cells remaining in the hippocampal CA1 region were counted. Most of the hippocampal CA1 cells died due to the cerebral ischemia.

fodrin [6] = conditions: Seubert et al., Synapse 1987; cited from earlier work
[7] = tested on: delayed neuronal cell death; conditions: Kogure et al. 1990; cited from earlier work
fodrin [8] = assay: Effect of calcium ion on breakdown of cytoskeltal protein fodrin in hippocampal homogenate (western blotting); assay type: biochemical, gerbil; conditions: 1 mM CaCl2 or 1 mM EGTA, 37° C., 1 hour
Experimental: The hippocampus taken out from a gerbil was homogenized with 20 mM tris buffer (pH 7.5). […] Then the homogenate was centrifuged at 10,000×g for 30 minutes. After separating proteins contained in the supernatant fraction by SDS-PAGE, the proteins were identified by western blotting with the use of a fodrin antibody (rabbit anti α-Spectrin) and a calmodulin antibody (sheep anti-bovine calmodulin).

[9] = 100 mg/kg orally 1 hour before 10 min ischemia, 24 hrs after ischemia, n = 10-12

COc1ccc(Cn2nc(CCN3CCN(c4cccc(Cl)c4C)CC3)c3cc(OC)c(OC)cc32)cc1OC [compound A]
IC50 [1]: 3.93 µM
selectivity for calmodulin [1]: high selectivity for calmodulin
change in calmodulin content / localization caused by calcium ion (hippocampal calmodulin [2]; 10 μM compound A, 1 mM calcium chloride, in vitro): significantly suppressed
effect on the behavior of calmodulin in the presence of EGTA (hippocampal calmodulin [2]): no effect
Calmodulin Content, Soluble Fraction (hippocampal calmodulin [2]): 1.75 ± 0.52 μg/mg protein
Calmodulin Content, Membrane Fraction (hippocampal calmodulin [2]): 7.1 ± 0.50 μg/mg protein
Calmodulin Content, Cytoplasm Fraction (hippocampal calmodulin [3]; [9]): 1.3 ± 0.08 μg/mg protein
Calmodulin Content, Membrane Fraction (hippocampal calmodulin [3]; [9]): 1.4 ± 0.05 μg/mg protein
increase in the calmodulin content in the membrane fraction / translocation of calmodulin after cerebral ischemia (hippocampal calmodulin [3]): significantly suppressed; also recorded: suppress
fodrin breakdown products due to cerebral ischemia (fodrin [4]): suppress
Hippocampal Neuronal Cell Density [5]: 98 ± 22.0 /mm
protective effect on neuronal cells / suppression of neuronal cell death [5]: a protective effect on neuronal cells was clearly observed; also recorded: suppress neuronal cell death

CN1CCN(CCCN2c3ccccc3Sc3ccc(C(F)(F)F)cc32)CC1 [trifluoropelazine]
breakdown of fodrin (fodrin [6]): suppressed

NCCCCCCNS(=O)(=O)c1cccc2c(Cl)cccc12 [W-7, reference compound]
effect on the behavior of calmodulin in the presence of EGTA (hippocampal calmodulin [2]): no effect
effect of suppressing delayed neuronal cell death [7]: no effect

[Ca+2].[Cl-].[Cl-] [CaCl2, calcium chloride, reference compound]
calmodulin content in the membrane fraction, change in words (hippocampal calmodulin [2]; 1 mM calcium chloride, compared with EGTA): increased
Calmodulin Content, Membrane Fraction (hippocampal calmodulin [2]): 11.4 ± 0.34 μg/mg protein
stable breakdown products of fodrin (140-150 kDa) (fodrin [8]): bands of the breakdown products appeared

O=C(O)CN(CCOCCOCCN(CC(=O)O)CC(=O)O)CC(=O)O [EGTA, ethylenebis(oxyethylenenitrylo)tetraacetic acid, reference compound]
Calmodulin Content, Soluble Fraction (hippocampal calmodulin [2]): 12.3 ± 0.77 μg/mg protein
Calmodulin Content, Membrane Fraction (hippocampal calmodulin [2]): 7.6 ± 0.40 μg/mg protein
stable breakdown products of fodrin (140-150 kDa) (fodrin [8]): little observed

COc1cc2c(CCN3CCN(c4cccc(Cl)c4C)CC3)nn(Cc3c[nH]cn3)c2cc1OC [compound B]
selectivity for calmodulin [1]: high selectivity for calmodulin
IC50 ([1]; pH 7.5, 1 mM CaCl2, 30° C., 10 minutes): 5.46 µM
increase in the calmodulin content in the membrane fraction / translocation of calmodulin after cerebral ischemia (hippocampal calmodulin [3]): suppress
fodrin breakdown products due to cerebral ischemia (fodrin [4]): scarcely detected; also recorded: suppress
Hippocampal Neuronal Cell Density [5]: 131 ± 21.2 /mm
protective effect on neuronal cells / suppression of neuronal cell death [5]: a protective effect on neuronal cells was clearly observed; also recorded: suppress neuronal cell death
